Legend:
[1] = Safety: adverse events in the trial cohorts; conditions: cohort of the named antiepileptic drug
[2] = clinical; conditions: for Vd/F: Vz/F; for half-life: t1/2, oral microdose cocktail; for exposure (AUC) during carbamazepine relative to baseline: microdosed FXaI
[3] = Pharmacokinetics of factor Xa inhibitors at baseline and at gabapentin steady-state (open-label fixed-sequence DDI trial); conditions: human, in vivo, po, oral microdose cocktail, GM
Description: (§1) A p-value < 0.05 was considered significant.

[4] = Pharmacokinetics of factor Xa inhibitors at baseline and at pregabalin steady-state (open-label fixed-sequence DDI trial); conditions: human, in vivo, po, oral microdose cocktail, GM
Description: as §1

[5] = tested on: CYP3A; assay: CYP3A activity assessed by pharmacokinetics of microdosed midazolam (limited sampling, AUC2-4, eCLmet)
Description: We simultaneously quantified the effect on CYP3A activity with an oral midazolam microdose (30 µg) (Figure 1).
Carbamazepine, gabapentin, and pregabalin were dosed to steady-state during a treatment period of 21 d for carbamazepine, 13 d for gabapentin, and 21 d for pregabalin, followed by the evaluation of their perpetrator effects. Steady-state was ensured until the last blood sample was drawn. Carbamazepine was titrated to a maximum dose of 200 mg twice a day, if possible. If this dose could not be reached due to adverse events, carbamazepine was titrated to therapeutic plasma concentrations (5–10 μg/mL), with the lower range chosen to ensure the safety of the participants. Gabapentin was administered at a dose of 400 mg three times a day and pregabalin at a dose of 300 mg twice a day. Single-dose pharmacokinetics of the microdosed FXaI were assessed at baseline and at the end of the above mentioned treatment period, at steady-state of the perpetrator.
All collected samples were processed within 20 min and plasma was stored at ≤ −20°C until analysis.
Non-compartmental analyses were conducted to assess the pharmacokinetics of the FXaI and midazolam utilizing Phoenix WinNonlin 8.3 (Certara, Inc., Princeton, NJ, United States). Cmax and the time to reach Cmax (tmax) were directly obtained from the concentration data. The area under the concentration-time curve from 0 to infinity ( AUC∞ ) was determined using the log-linear trapezoidal rule with extrapolation to infinity. The half-life (t1/2) was calculated as ln2/λz , with the elimination rate constant λz being estimated utilizing log-linear regression of the elimination phase. Apparent oral CL (CL/F) and volume of distribution (Vz/F) were calculated using standard equations for non-compartmental analysis.

[6] = set-up: method as in Brown, 2014; conditions: ref Brown, 2014; cited from earlier work
[7] = cited from earlier work
[8] = tested on: Coagulation markers (activated partial thromboplastin time and international normalized ratio); assay: Coagulation markers measured 3 h post dose; format: in vivo, human (healthy volunteers)
[9] = human, in vivo, po, oral microdose cocktail (25 µg apixaban, 50 µg edoxaban, 25 µg rivaroxaban), baseline, GM
[10] = human, in vivo, po, oral microdose cocktail, during carbamazepine steady-state, GM
[11] = human, in vivo, po, oral microdose cocktail, baseline, GM
[12] = human, in vivo, po, oral microdose cocktail, at carbamazepine steady-state, GM
[13] = human, in vivo, po, at carbamazepine steady-state, GM
[14] = human, in vivo, po, baseline, GM
[15] = oral microdose cocktail, at carbamazepine steady-state, GM
[16] = oral microdose cocktail, baseline, GM
[17] = carbamazepine cohort, at carbamazepine steady-state, with edoxaban 60 mg
[18] = carbamazepine cohort, at carbamazepine steady-state, with microdosed FXaI
[19] = carbamazepine cohort, baseline, with edoxaban 60 mg
[20] = gabapentin cohort, at gabapentin steady-state, with edoxaban 60 mg
[21] = gabapentin cohort, at gabapentin steady-state, with microdosed FXaI
[22] = gabapentin cohort, baseline, with edoxaban 60 mg
[23] = pregabalin cohort, at pregabalin steady-state, with edoxaban 60 mg
[24] = pregabalin cohort, at pregabalin steady-state, with microdosed FXaI
[25] = pregabalin cohort, baseline, with edoxaban 60 mg
[26] = healthy volunteers, 7-d rifampin treatment, ref Mendell et al., 2015
[27] = 180 min after edoxaban 60 mg alone
[28] = 180 min after edoxaban 60 mg with carbamazepine

NC(=O)N1c2ccccc2C=Cc2ccccc21 [carbamazepine]
adverse events deemed possibly related to the trial medication [1]: 19
adverse events overall [1]: 29
participants with adverse events [1]: 12 of 13
severe or serious adverse events [1]: none was serious, one was severe

NCC1(CC(=O)O)CCCCC1 [gabapentin]
adverse events deemed possibly related to the trial medication [1]: 21
adverse events overall [1]: 39
participants with adverse events [1]: 11 of 11
severe or serious adverse events [1]: none was severe or serious

CC(C)C[C@H](CN)CC(=O)O [pregabalin]
adverse events deemed possibly related to the trial medication [1]: 25
adverse events overall [1]: 37
participants with adverse events [1]: 11 of 12
severe or serious adverse events [1]: none was severe or serious

O=C(NC[C@H]1CN(c2ccc(N3CCOCC3=O)cc2)C(=O)O1)c1ccc(Cl)s1 [µ-rivaroxaban, rivaroxaban]
tmax ([2]; human, in vivo, po): 0.817 h
AUC(0-inf) [2, 9]: 3.1 ng·h/mL
AUC(0-inf) [2, 10]: 1.73 ng·h/mL
Cmax [2, 11]: 0.695 ng/mL
Cmax [2, 10]: 0.524 ng/mL
Vd/F [2, 12]: 63 L
Vd/F [2, 11]: 61 L
half-life [2, 13]: 3.02 h
half-life [2, 14]: 5.23 h
exposure (AUC) during carbamazepine relative to baseline [2]: 56%
CL/F [2, 15]: 14 L/h
tmax [2, 15]: 0.817 h
CL/F [2, 16]: 8.0 L/h
AUC(0-inf) ([3]; baseline): 3.23 ng·h/mL
AUC(0-inf) ([3]; during gabapentin steady-state): 2.98 ng·h/mL
Cmax ([3]; baseline): 0.718 ng/mL
Cmax ([3]; during gabapentin steady-state): 0.688 ng/mL
AUC(0-inf) ([4]; before pregabalin): 3.08 ng·h/mL
AUC(0-inf) ([4]; during pregabalin steady-state): 3.03 ng·h/mL
Cmax ([4]; before pregabalin): 0.783 ng/mL
Cmax ([4]; during pregabalin steady-state): 0.744 ng/mL

Cc1ncc2n1-c1ccc(Cl)cc1C(c1ccccc1F)=NC2 [Midazolam, midazolam]
eCLmet [5, 17]: 5654 mL/h
eCLmet GMR to baseline [5, 17]: 5.54
eCLmet [5, 18]: 5636 mL/h
eCLmet GMR to baseline [5, 18]: 5.52
eCLmet [5, 19]: 997 mL/h
eCLmet GMR to baseline [5, 19]: 0.98
eCLmet ([5]; carbamazepine cohort, baseline, with microdosed FXaI): 1021 mL/h
decrease of midazolam AUC2-4 ([5]; co-administration of carbamazepine): 82%
eCLmet [5, 20]: 923 mL/h
eCLmet GMR to baseline [5, 20]: 0.99
eCLmet [5, 21]: 957 mL/h
eCLmet GMR to baseline [5, 21]: 1.02
eCLmet [5, 22]: 931 mL/h
eCLmet GMR to baseline [5, 22]: 1.0
eCLmet ([5]; gabapentin cohort, baseline, with microdosed FXaI): 936 mL/h
effect on midazolam pharmacokinetics ([5]; gabapentin steady-state): did not alter
eCLmet [5, 23]: 1306 mL/h
eCLmet ratio to baseline [5, 23]: 1.23
eCLmet [5, 24]: 1198 mL/h
eCLmet ratio to baseline [5, 24]: 1.13
eCLmet [5, 25]: 1201 mL/h
eCLmet ratio to baseline [5, 25]: 1.13
eCLmet ([5]; pregabalin cohort, baseline, with microdosed FXaI): 1061 mL/h
effect on midazolam pharmacokinetics ([5]; pregabalin steady-state): did not alter

CN1CCc2nc(C(=O)N[C@@H]3C[C@@H](C(=O)O)CC[C@@H]3NC(=O)C(=O)Nc3ccc(Cl)cn3)sc2C1 [Edoxaban M-4]
anticoagulant effects of M-4 and edoxaban [6]: comparable anticoagulant effects
AUC increase [7, 26]: 2.86 fold
Cmax increase [7, 26]: 5.06 fold

CN1CCc2nc(C(=O)N[C@@H]3C[C@@H](C(=O)N(C)C)CC[C@@H]3NC(=O)C(=O)Nc3ccc(Cl)cn3)sc2C1 [Edoxaban, edoxaban]
INR, mean [8, 27]: 1.23
aPTT, mean [8, 27]: 33.63
INR, mean [8, 28]: 1.14
aPTT, mean [8, 28]: 29.56
coagulation changes induced by edoxaban ([8]; therapeutic dose or microdose, with gabapentin or pregabalin (data not shown)): not influenced
AUC reduction ([7]; co-administration with rifampin, ref Lixiana, 2017): up to 35%

COc1ccc(-n2nc(C(N)=O)c3c2C(=O)N(c2ccc(N4CCCCC4=O)cc2)CC3)cc1 [µ-apixaban, apixaban]
AUC(0-inf) [2, 9]: 5.9 ng·h/mL
AUC(0-inf) [2, 10]: 3.92 ng·h/mL
Cmax [2, 11]: 0.719 ng/mL
Cmax [2, 10]: 0.634 ng/mL
Vd/F [2, 12]: 36 L
Vd/F [2, 11]: 36 L
half-life [2, 13]: 3.95 h
half-life [2, 14]: 5.97 h
exposure (AUC) during carbamazepine relative to baseline [2]: 66%
tmax ([2]; oral microdose cocktail (solution), baseline, GM): 1.6 h
CL/F [2, 15]: 6.4 L/h
tmax [2, 15]: 1.72 h
CL/F [2, 16]: 4.2 L/h
AUC(0-inf) ([3]; baseline): 6.95 ng·h/mL
AUC(0-inf) ([3]; during gabapentin steady-state): 6.48 ng·h/mL
Cmax ([3]; baseline): 0.822 ng/mL
Cmax ([3]; during gabapentin steady-state): 0.775 ng/mL
AUC(0-inf) ([4]; before pregabalin): 6.2 ng·h/mL
AUC(0-inf) ([4]; during pregabalin steady-state): 6.07 ng·h/mL
Cmax ([4]; before pregabalin): 0.782 ng/mL
Cmax ([4]; during pregabalin steady-state): 0.775 ng/mL
reduction in exposure ([7]; combined use with inducers of both CYP3A4 and P-gp such as carbamazepine, ref Eliquis, 2024): ~50%

— paper PMC12022901 (Frontiers in Pharmacology, 2025)
